# Data from patent US5574057A, “Naamidine A extracted from sea sponges and methods for its use as an anti-tumor agent” (priority 1994, dated 1996).
# Entries after “also recorded” stand apart in the source; their conditions may differ.
# What was measured:
# [1] = tested on: EGF-induced mitogenesis in EC25 cells (NIH3T3 cells transfected with the EGF receptor gene); test: EGF mitogenic assay (3H-thymidine incorporation), EGF stimulation; format: cell-based, human
# From the text: The assay to determine a compound's selectivity compares the level of inhibition of the targeted activity (EGF stimulation of cell growth) with the inhibition of insulin stimulated cell growth.
# (§1) An in vitro bioassay, called the EGF mitogenic assay, was used to aid in the identification of antagonists of EGF dependent cell proliferation. The mitogenic response due to EGF is quantified by measuring the incorporation of ^3 H-thymidine into NIH3T3 cells (or "EC25 cells") that have been transfected with the EGF receptor gene. Stimulation of these cells with insulin is used as a "nonspecific" mitogen control. Samples were preincubated with the EC25 cells for one hour before the addition of the mitogen, then further incubated for 16 hours, and mitogenic stimulation assessed by a one hour incorporation of ^3 H-thymidine. The development of the EC25 cell line, and the EGF mitogenic assay in which it is used, is explained in greater detail in Velu, T. J. et al., "Epidermal Growth Factor-Dependent Transformation by a Human EGF Receptor Proto-Oncogene, " Science 238:1408-10 (1987).
# (§2) The concentration at which control insulin stimulation is inhibited 50% by the test sample (IC50(insutin)) was calculated as was the same value for EGF (IC50(EGF)). These values were then used to calculate a specificity ratio which is IC50(insulin)/ IC50(EGF).
# These activity criteria help determine which inhibitors are specific for the EGF signalling pathway.
# [2] = tested on: insulin stimulation of EC25 cells; test: EGF mitogenic assay (3H-thymidine incorporation), insulin stimulation as nonspecific mitogen control; format: cell-based; conditions: pure sample
# Description: as §1, §2
# EGF receptor = test: competition with binding of biotinylated EGF to A431 cells; design: species or system human; conditions: up to 500 μg/ml
# Description: Experimental Test 4. Presently, the mechanism of action of naamidine A for inhibition of the EGF signalling pathway is unknown. […] This assay measured the ability of naamidine A to compete with the binding of biotinylated EGF to the EGF receptor, which is highly over expressed in A431 human squamous cell carcinoma cells.
# In the assay represented in FIG. 3, the A431 cells were incubated in the presence of either the EGF standard or naamidine A plus biotinylated EGF for one hour and the degree of inhibition of biotinylated EGF binding to the EGF receptor was quantified using a peroxidase-linked anti-biotin antibody. The solid circles (.circle-solid.) in FIG. 3 represent the level of binding of EGF to cell receptors when the cells are subjected to various levels of naamidine A. The open circles (.largecircle.) represent the level of binding of EGF to cell receptors when the cells are subjected to various levels of EGF, which is used as a positive control.
# c-src tyrosine kinase = c-src tyrosine kinase (Homo sapiens, UniProt P12931); test: c-src tyrosine kinase assay (phosphorylation of RCM lysozyme); format: biochemical; conditions: isolated c-src, RCM lysozyme substrate, 30 minutes
# Description: Experimental Test 5. […] In this assay, phosphorylation of the substrate RCM (reduced, carboxyamidomethylated and maleylated) lysozyme by c-src is quantified using a peroxidase-linked anti-phosphotyrosine antibody to determine the activity of this kinase.
# The sample of naamidine A was incubated with the substrate RCM […], c-src enzyme, and ATP for 30 minutes, after which time the reaction was terminated and tyrosine phosphorylation was assessed using a peroxidase-linked antiphosphotyrosine antibody.
# [3] = tested on: human squamous cell carcinoma (A431); test: first in vivo test, A431 xenograft in athymic mice, assessed 15 days after implantation (Experimental Test 7); design: species or system human tumor in athymic mice; conditions: for % Inhibition of tumor growth: q1d×5;1, 15 days; for toxicity: 100 mg/kg
# Description: Tumor growth was assessed by measuring the change in tumor size over a fifteen day period. Although naamidine A inhibited tumor growth, the inhibition was a modest 37%. Therefore, a second evaluation was carried out using a different schedule of treatment and evaluation.
# J. Oncology, 1:293-298 (1992).
# Tumor growth was calculated as FTS/ITS. […] Experimental Test 7.
# The effect of naamidine A on the tumor was assessed 15 days after tumor implantation and there were six mice per treatment group.
# [4] = tested on: human squamous cell carcinoma (A431); test: second in vivo test, A431 xenograft in athymic mice, assessed 7 days after implantation (Experimental Test 8); conditions: for % Inhibition of tumor growth: q1d×5;1, 7 days; for deaths: q1d×5;1, six mice per group
# Description: In this test, the mice were treated with varying dosages of naamidine A for five days after implantation of the carcinoma. The tumors were then evaluated for growth activity seven days after implantation, as determined by the change in tumor size.
# The model system used for these in vivo studies was a human squamous cell carcinoma (A431) that over expresses the EGF receptor, which was implanted into athymic mice.
# According to Robinson et al., the A431 cell line was adapted to grow in female athymic mice by s.c. inoculation of 10^7 cultured cells into the axillary region. Tumors were passaged in female athymic mice by sterile dissection of solid tumors and s.c. implantation of tumor fragments into the axillary region.
# Drug effects were calculated as the mean % inhibition the drug treatment produced on tumor growth when compared to control. Inhibition of >80% of tumor growth was considered a working criteria for "active".
# In this second in vivo test, the length of time for tumor growth was shortened to seven days to more closely coincide with the time of drug treatment. Two groups of twelve mice each were treated with the standard antibody (MA225), while there were six mice per group treated with varying doses of naamidine A.
# The tumor was exposed to the test agent (naamidine A) once a day for 5 days (q1 d×5; 1), which was nearly the entire length of the growth period of 7 days. During this time, the tumor would normally be expected to double about 1.5 times instead of 3 times for a 15 day period.
# Under these conditions, doses ranging from 0.78 mg/kg to 50 mg/kg were given using the same dosing schedule as with the first experiment.
# [5] = 25 mg/kg, listed as Naamidine A
# Description for HCT116 colon cells: In the XTT assay, cells are plated at 4000 cells/well in 96 well microtiter plates; 24 hours later the test drugs are added and serially diluted. The cells are incubated at 37° C. for 72 hours, at which time the tetrazolium dye, XTT, is added. A dehydrogenase enzyme in live cells reduces the XTT to a form that absorbs light at 450 nm which can be quantitated spectrophotometrically. The greater the absorbance the greater the number of live cells. The results are expressed as an IC50 which is the drug concentration required to inhibit cell proliferation (i.e., absorbance at 450 nm) to 50% of that of untreated control cells.
substance,measurement,setting,value
naamidine A,activity in the EGF assay (in words),[1]; EC25 cells,very good activity
same,IC50(EGF),"[1]; EC25 cells, EGF stimulation, pure sample",4.8 mg/L
same,IC50(insulin)/IC50(EGF) ratio,"[1]; EC25 cells, specificity ratio",22
same,specificity for EGF versus insulin stimulated response (in words),[1]; tritiated thymidine incorporation after EGF or insulin stimulation,less potent in inhibiting insulin stimulated cell proliferation compared to EGF stimulated growth; also recorded: more specific for the EGF mediated mitogenic response than for the insulin mediated mitogenic response
same,selectivity in inhibiting EGF dependent growth relative to insulin dependent growth,"[1]; tritiated thymidine incorporation, preliminary testing",about 22 times
same,IC50(insulin),[2],105.6 mg/L
same,effect on binding of EGF to its receptor,EGF receptor,does not appear to affect the binding of EGF to its corresponding receptor cite; also recorded: did not appear to effect the binding of EGF to receptor sites
same,inhibition of c-src tyrosine kinase activity (in words),c-src tyrosine kinase,lack of c-src tyrosine kinase activity; also recorded: not inhibit the activity of the isolated c-src tyrosine kinase; also recorded: no significant inhibition of c-src tyrosine kinase activity
same,% Inhibition of tumor growth,[3]; 1.6 mg/kg,36.6%
same,% Inhibition of tumor growth,[3]; 6.25 mg/kg,32.2%
same,% Inhibition of tumor growth,[3]; 25 mg/kg,37%
same,% Inhibition of tumor growth,[3]; [5],37.1%
same,net reduction in tumor cell growth,"[3]; first in vivo test, 15 days, includes period of regrowth",30-40%
same,toxicity,"[3]; mice, q1d×5;1",toxic to the mice
same,toxicity,"[3]; mice, q1d×5;1, listed as Naamidine A",toxic (multiple deaths)
same,maximally tolerated dose,"[3]; mice, q1d×5;1, 21600 min",25 mg/kg
same,general in vitro cytotoxicity (in words),HCT116 colon cells,relatively low general in vitro cytotoxicity
same,IC50,"HCT116 colon cells; HCT116, XTT, 72 hours",31 mg/L
same,% Inhibition of tumor growth,[4]; 1.56 mg/kg,47.9%
same,% Inhibition of tumor growth,[4]; 3.13 mg/kg,35%
same,% Inhibition of tumor growth,[4]; 6.25 mg/kg,-7.5%
same,% Inhibition of tumor growth,[4]; 12.5 mg/kg,52%
same,% Inhibition of tumor growth,[4]; 25 mg/kg,at least 85%
same,% Inhibition of tumor growth,[4]; [5],87.4%
same,% Inhibition of tumor growth,[4]; 50 mg/kg,96.4%
same,deaths (in words),"[4]; mice, 25 mg/kg",death of one mouse
same,deaths,"[4]; mice, 25 mg/kg",1 death
same,toxicity (in words),"[4]; mice, 50 mg/kg",toxic to many of the mice
same,deaths,"[4]; mice, 50 mg/kg",2 deaths
same,maximal tolerated dose,"[4]; mice, q1d×5;1, 10080 min",25 mg/kg
same,LD-10 (dose at which 10% of the mice died),"[4]; mice, q1d×5;1, roughly estimated from Experimental Test 8",about 25 mg/kg
same,Tumor growth inhibition,"[4]; somewhat toxic doses, 7 days, best results at about 25 mg/kg",about 85%
